Columns and labels:
[1] = Antioxidant activity assessed as ABTS radical scavenging activity incubated for 6 mins under dark condition; assay type: functional
[2] = Antioxidant activity assessed as DPPH radical scavenging activity incubated for 30 mins under dark condition; assay type: functional
HUVEC [3] = test: (§1) Protection against hypoxia/reoxygenation-induced cell injury in HUVEC assessed as cell viability at 5 uM treated 1 hr prior to hypoxia induction for 12 hrs followed by compound redosing and subsequent reoxygenation for 3 hrs by MTT assay (reference value: 35%); assay type: functional; conditions: Homo sapiens, read-out: Activity
HUVEC [4] = test: as §1, with “late apoptotic cells” for “cell viability”, “1” for “5”, “annexin-V-FITC/propidium iodide staining based flow cytometric analysis” for “MTT assay”, “22.8%)” for “35%)”; assay type: functional, Homo sapiens
HUVEC [5] = test: as §1, with “late apoptotic cells” for “cell viability”, “annexin-V-FITC/propidium iodide staining based flow cytometric analysis” for “MTT assay”, “22.8%)” for “35%)”; assay type: functional, Homo sapiens

CC[C@@H](C)[C@@]12OC(=O)[C@@]3(O)C[C@@H](O1)c1c(cc(O)c(C)c1O)[C@@]23C
EC50 [1]: 83.5 to 126 µM | EC50 [2]: 83.5 to 126 µM | viability at 5 µM (HUVEC [3]): 70% | Activity (HUVEC [4]): 9.8% | Activity (HUVEC [5]): 9.4%

CC[C@@H](C)[C@]12OC(=O)[C@]3(O)C[C@H](O1)c1c(cc(O)c(C)c1O)[C@]23C
EC50 [1]: 83.5 to 126 µM | EC50 [2]: 83.5 to 126 µM

Source: ChEMBL document CHEMBL4145569, “Hypoxia-Protective Azaphilone Adducts from Peyronellaea glomerata” (J Nat Prod, 2018)
